The structures appear in SMILES notation.

The results in this text go back to patent US4542025A, “Injectable, long-acting microparticle formulation for the delivery of anti-inflammatory agents” (priority 1984, dated 1985).

The series can be described thus: In vitro release of methylprednisolone acetate into 50 wt % aqueous ethanol. The class given is physicochemical. The conditions noted are these: unencapsulated, 37° C., 120 cycles/min.

Procedure: The in vitro release of methylprednisolone acetate from microparticles into a receiving fluid comprising 50 wt % of aqueous ethanol maintained at 37° C. was measured.
Triplicate samples of 20 mg of microparticles were weighed and each sample was placed in an 8-oz bottle containing 150 mL of 50 wt % aqueous ethanol. […] Next, the bottles were sealed with a thin sheet of Teflon and a screw cap to prevent evaporation. The bottles were then placed in an Eberbach shaker bath oscillating at 120 cycles/min and maintained at 37° C. The amount of drug released from the microparticles as a function of time was measured by determining the absorbance of the aqueous ethanol receiving fluid at 247 nm and by using the following equation based on Beer's Law.
wherein C is the concentration of methylprednisolone acetate in g/ml.

In the case of `CC(=O)OCC(=O)[C@@]1(O)CC[C@H]2[C@@H]3C[C@H](C)C4=CC(=O)C=C[C@]4(C)[C@H]3[C@@H](O)C[C@@]21C`, the “time to complete dissolution” value is recorded as 30 min.
